Measured values published in US20260226084A1, “DUAL RAF AND TUBULIN INHIBITORS AND METHODS OF USE THEREOF” (Deciphera Pharmaceuticals, LLC, priority 2023, published 2026).

Legend:
[1] = target: T1, C-Raf kinase (SEQ ID NO: 2) (Homo sapiens, UniProt P04049, Y340D/Y341D); assay: Biochemical Assay for C-Raf (coupled pyruvate kinase/lactate dehydrogenase assay); settings: 1 mM ATP; read-out: CRAF (inhibition of biochemical activity, IC50)
T1 construct: C-Raf residues 306-end; Y340D, Y341D with; GST (N); purchased Sigma

[2] = test system: MiaPaca-2 cells; assay: MiaPaca-2 Cell Proliferation Assay; assay type: cell-based; settings: Homo sapiens, MIA PaCa-2, MiaPaca-2 cells; Table 2; read-out: Inhibition of cell proliferation in MiaPaca-2 (IC50 class)
Experimental: Miapaca-2 cells (catalog #CRL-1420) are obtained from the American Type Culture Collect (ATTC, Manassas, VA). Briefly, cells were grown in DMVEM supplemented with 10 characterized fetal bovine serum (Invitrogen, Carlsbad, CA), 2.5% New Zealand sourced horse serum and 1 Penicillin/Streptomycin/L-Glutamine at 37° C., 5 CO2, and 95% humidity. Cells are expanded until reaching 70-95% confluency at which point they are sub-cultured or harvested for assay use. A serial dilution of test compound is dispensed into a 96-well black clear bottom plate in triplicate. Three thousand cells are added per well in 200 μL complete growth medium in the 96-well plate. Plates are incubated for 67 to 72 h at 37° C., 5% CO2, and 95% humidity. At the end of the incubation, 40 μL of a 440 μM solution of resazurin (Sigma, St. Louis, MO) in PBS is added to each well of the plate and plates are incubated for an additional 5 to 6 h at 37° C., 5% CO2, and 95% humidity. Plates are read on a Synergy2 or equivalent reader (Biotek, Winooski VT) using an excitation of 540 nm and an emission of 600 nm. Data is analyzed using Prism software (Graphpad, San Diego, CA) to calculate IC50 values.

[3] = target: T2, B-Raf kinase (SEQ ID NO: 1) (Homo sapiens, UniProt P15056); assay: Biochemical Assay for B-Raf (coupled pyruvate kinase/lactate dehydrogenase assay); settings: 1 mM ATP; read-out: BRAF (inhibition of biochemical activity, IC50)
T2 construct: GST (N); purchased Sigma

[4] = test system: Pa16c cells; assay: Pa16c Cell Proliferation Assay; assay type: cell-based; settings: Table 2, read-out: Inhibition of cell proliferation in Pa16c (IC50 class)
Experimental: Pa16c cells are obtained from Dr. Channing Der, University of North Carolina at Chapel Hill. Briefly, cells are grown in Dulbecco's Modified Eagle Medium supplemented with 10% characterized fetal bovine serum (Invitrogen, Carlsbad, CA) and 1% Penicillin/Streptomycin/L-Glutamine at 37° C., 5% CO2, and 95% humidity. Cells are expanded until reaching 70-95% confluency at which point they are sub-cultured or harvested for assay use. A serial dilution of test compound is dispensed into a 384-well black clear bottom plate in triplicate. 750 cells are added per well in 50 μL complete growth medium in the 384-well plate. Plates are incubated for 67 to 72 h at 37° C., 5% CO2, and 95% humidity. At the end of the incubation, 40 μL of a 440 μM solution of resazurin (Sigma, St. Louis, MO) in PBS is added to each well of the plate and plates are incubated for an additional 18 to 24 hours at 37° C., 5% CO2, and 95% humidity. Plates are read on a Synergy2 or equivalent reader (Biotek, Winooski, VT) using an excitation of 540 nm and an emission of 600 nm. Data is analyzed using Prism software (Graphpad, San Diego, CA) to calculate IC50 values.

[5] = test system: HCT-116 cells; assay: HCT-116 Cell Proliferation Assay; assay type: cell-based; settings: Homo sapiens, HCT-116, HCT-116 cells; Table 2; read-out: Inhibition of cell proliferation in HCT-116 (IC50 class)
Experimental: HCT-116 cells (catalog #CCL-247) are obtained from the American Type Culture Collect (ATCC, Manassas, VA). Briefly, cells are grown in McCoy's 5A supplemented with 10% characterized fetal bovine serum (Invitrogen, Carlsbad, CA) and 1% Penicillin/Streptomycin/L-Glutamine at 37° C., 5% CO2, and 95% humidity. Cells are expanded until reaching 70-95% confluency at which point they are subcultured or harvested for assay use. A serial dilution of test compound is dispensed into a 384-well black clear bottom plate in triplicate. 375 cells are added per well in 50 μL complete growth medium in the 384-well plate. Plates are incubated for 67 to 72 hours at 37° C., 5% CO2, and 95% humidity. At the end of the incubation, 40 μL of a […] solution of resazurin (Sigma, St. Louis, MO) in PBS is added to each well of the plate and plates are incubated for an additional 4 to 5 h at 37° C., 5% CO2, and 95% humidity. Plates are read on a Synergy2 or equivalent reader (Biotek, Winooski, VT) using an excitation of 540 nm and an emission of 600 nm. Data is analyzed using Prism software (Graphpad, San Diego, CA) to calculate IC50 values.

[6] = test system: HPAF-II cells; assay: HPAF-II Cell Proliferation Assay; assay type: cell-based; settings: Homo sapiens, HPAF-II, HPAF-II cells; Table 2; read-out: Inhibition of cell proliferation in HPAF-II (IC50 class)
Experimental: HPAF-II cells (catalog #CRL-1997) are obtained from the American Type Culture Collect (ATCC, Manassas, VA). Briefly, cells are grown in Minimum Essential Media supplemented with 10% characterized fetal bovine serum (Invitrogen, Carlsbad, CA) and 1% Penicillin/Streptomycin/L-Glutamine at 37° C., 5% CO2, and 95% humidity. Cells are expanded until reaching 70-95% confluency at which point they are sub-cultured or harvested for assay use. A serial dilution of test compound is dispensed into a 384-well black clear bottom plate in triplicate. 750 cells are added per well in 50 μL complete growth medium in the 384-well plate. Plates are incubated for 115 to 120 hours at 37° C., 5% CO2, and 95% humidity. At the end of the incubation, 40 μL of a 440 μM solution of resazurin (Sigma, St. Louis, MO) in PBS is added to each well of the plate and plates are incubated for an additional 18 to 24 hours at 37° C., 5% CO2, and 95% humidity. Plates are read on a Synergy2 or equivalent reader (Biotek, Winooski, VT) using an excitation of 540 nm and an emission of 600 nm. Data is analyzed using Prism software (Graphpad, San Diego, CA) to calculate IC50 values.

T1 sequence (P04049 307-648 Y340D/Y341D): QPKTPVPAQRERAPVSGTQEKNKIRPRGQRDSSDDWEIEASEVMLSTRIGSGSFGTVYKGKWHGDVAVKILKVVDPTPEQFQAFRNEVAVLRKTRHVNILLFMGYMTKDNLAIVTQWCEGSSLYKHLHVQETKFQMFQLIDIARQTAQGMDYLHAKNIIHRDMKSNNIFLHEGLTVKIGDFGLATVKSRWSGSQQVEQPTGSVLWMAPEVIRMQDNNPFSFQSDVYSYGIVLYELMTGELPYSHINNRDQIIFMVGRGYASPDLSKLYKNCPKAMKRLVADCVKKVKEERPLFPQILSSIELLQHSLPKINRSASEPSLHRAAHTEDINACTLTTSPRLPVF
T2 sequence (P15056 416-766): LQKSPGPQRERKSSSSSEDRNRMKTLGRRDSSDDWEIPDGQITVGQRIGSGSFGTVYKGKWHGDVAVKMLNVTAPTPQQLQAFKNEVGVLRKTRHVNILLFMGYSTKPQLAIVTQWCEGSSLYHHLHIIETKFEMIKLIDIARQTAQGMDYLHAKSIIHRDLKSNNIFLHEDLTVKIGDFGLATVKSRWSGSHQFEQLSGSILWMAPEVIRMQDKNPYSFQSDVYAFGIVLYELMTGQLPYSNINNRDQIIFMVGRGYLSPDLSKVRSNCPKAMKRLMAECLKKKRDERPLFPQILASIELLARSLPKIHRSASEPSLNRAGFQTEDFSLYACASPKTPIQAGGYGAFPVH

| SMILES | IC50 [1] [nM] | IC50 [2] [nM] | IC50 [3] [nM] | IC50 [4] [nM] | IC50 [5] [nM] | IC50 [6] [nM] |
| --- | --- | --- | --- | --- | --- | --- |
| Cc1ccc(NC(=O)c2cc(C3CC3)cnn2)cc1-c1nc(NCCO)cc(-c2ccnc(NC(=O)C3CC3)c2)n1 [Example 102] | < 100 | 1000 to 10000 | < 100 | 1000 to 10000 | 500 to 1000 | 1000 to 10000 |
| Cc1ccc(NC(=O)c2cncc(C(F)(F)F)c2)cc1-c1ccnc(-c2ccnc(NC(=O)C3CC3)c2)c1 [Example 78] | < 100 | 500 to 1000 | < 100 | 1000 to 10000 | 100 to 500 | 100 to 500 |
| Cc1ccc(NC(=O)c2cncc(C(F)(F)F)n2)cc1-c1ccnc(-c2ccnc(NC(=O)C3CC3)c2)c1 [Example 84] | < 100 | 1000 to 10000 | < 100 | 1000 to 10000 | 1000 to 10000 | 1000 to 10000 |
| Cc1ccc(NC(=O)c2cc(C(C)C)cnn2)cc1-c1ccnc(-c2ccnc(NC(=O)C3CC3)c2)c1 [Example 38] | < 100 | 100 to 500 | < 100 | 500 to 1000 | 100 to 500 | 100 to 500 |
| Cc1cc(F)c(NC(=O)c2cc(C(F)(F)F)cnn2)cc1-c1ccnc(-c2ccnc(NC(=O)C3CC3)c2)c1 [Example 60] | < 100 | 1000 to 10000 | < 100 | 1000 to 10000 | 100 to 500 | 1000 to 10000 |
| Cc1ccc(NC(=O)c2cc(C(F)(F)F)cnn2)cc1-c1ccnc(-c2ccnc(NC=O)c2)c1 [Example 110] | < 100 | < 100 | < 100 | < 100 | < 100 | < 100 |
| Cc1ccc(NC(=O)c2cc(C(F)(F)F)cnn2)cc1-c1ccnc(-c2ccoc2)c1 [Example 145] | 100 to 500 | 100 to 500 | 100 to 500 | 100 to 500 | 100 to 500 | 100 to 500 |
| Cc1ccc(NC(=O)c2cc(C(F)(F)F)cnn2)cc1-c1ccnc(-c2ccnc(NC(=O)CN(C)C)c2)c1 [Example 52] | < 100 | 100 to 500 | < 100 | 500 to 1000 | 100 to 500 | 100 to 500 |
| Cc1ccc(NC(=O)c2cncc(C(F)(F)F)n2)cc1-c1cncc(-c2cc(NC(=O)C3CC3)ncn2)c1 [Example 61] | < 100 | 1000 to 10000 | < 100 | 1000 to 10000 | < 100 | 1000 to 10000 |
| Cc1ccc(NC(=O)c2cc(C3CC3)cnn2)cc1-c1cncc(-c2cc(NC(=O)C3CC3)ncn2)c1 [Example 69] | < 100 | 1000 to 10000 | < 100 | 1000 to 10000 | 100 to 500 | 500 to 1000 |
| Cc1ccc(NC(=O)c2cc(C(F)(F)F)cnn2)cc1-c1ccnc(-c2cscn2)c1 [Example 142] | 500 to 1000 | 500 to 1000 | 500 to 1000 | 100 to 500 | 100 to 500 | 100 to 500 |
| Cc1ccc(NC(=O)c2cc(C(F)(F)F)cnn2)cc1-c1ccnc(-c2ccnc(NC(=O)CC3(C)CC3)c2)c1 [Example 90] | 100 to 500 | 100 to 500 | 100 to 500 | 1000 to 10000 | 100 to 500 | 100 to 500 |
| Cc1ccc(NC(=O)c2cc(C(F)(F)F)cnn2)cc1-c1cc(N[C@H](C)CO)cc(-c2cc(NC(=O)C3CC3)ncn2)c1 [Example 123] | < 100 | 100 to 500 | < 100 | < 100 | 100 to 500 | 100 to 500 |
| COCC(=O)Nc1cc(-c2cc(-c3cc(NC(=O)c4cc(C(F)(F)F)cnn4)ccc3C)ccn2)ccn1 [Example 48] | < 100 | < 100 | < 100 | < 100 | < 100 | 100 to 500 |
| CC(=N)Nc1cc(-c2cc(-c3cc(NC(=O)c4cc(C(F)(F)F)cnn4)ccc3C)ccn2)ccn1 [Example 91] | 100 to 500 | 500 to 1000 | 100 to 500 | 1000 to 10000 | 500 to 1000 | 1000 to 10000 |
| COCC(=O)Nc1cc(-c2nccc(-c3cc(NC(=O)c4cc(C(F)(F)F)cnn4)ccc3C)n2)ccn1 [Example 10] | < 100 | 1000 to 10000 | < 100 | 1000 to 10000 | 500 to 1000 | 500 to 1000 |
| Cc1ccc(NC(=O)c2cc(C(C)(F)F)cnn2)cc1-c1ccnc(-c2cscn2)c1 [Example 143] | 1000 to 10000 | 100 to 500 | 1000 to 10000 | 1000 to 10000 | 100 to 500 | 100 to 500 |
| Cc1ccc(NC(=O)c2cncc(C(C)(F)F)c2)cc1-c1cncc(-c2cc(NC(=O)C3CC3)ncn2)c1 [Example 109] | < 100 | 100 to 500 | < 100 | 1000 to 10000 | < 100 | 100 to 500 |
| Cc1ccc(NC(=N)c2cc(C(F)(F)F)cnn2)cc1-c1ccnc(-c2ccnc(NC(=O)C3CC3)c2)c1 [Example 86] | < 100 | 1000 to 10000 | 100 to 500 | 1000 to 10000 | 1000 to 10000 | 1000 to 10000 |
| Cc1ccc(NC(=O)c2cc(C(F)(F)F)cnn2)cc1-c1cncc(-c2ccnc(NC(=O)C3CC3)c2)c1 [Example 39] | < 100 | 500 to 1000 | < 100 | 100 to 500 | 100 to 500 | 500 to 1000 |
| CNCC(=O)Nc1cc(-c2cc(-c3cc(NC(=O)c4cc(C5CC5)cnn4)ccc3C)ccn2)ccn1 [Example 107] | < 100 | 100 to 500 | < 100 | 100 to 500 | 100 to 500 | 100 to 500 |
| Cc1ccc(NC(=O)c2cc(C(F)(F)F)cnn2)cc1-c1ccnc(-c2cncn2C)c1 [Example 135] | < 100 | 100 to 500 | < 100 | 100 to 500 | 100 to 500 | 100 to 500 |
